17 molecules from US9676751B2, “2-amino-3-ester-pyridl orexin receptor antagonists” (MERCK SHARP & DOHME CORP., priority 2013, dated 2017) can be followed below.

pIC50: −log10 of the molar value.

For assay [1], the target named is T1, human orexin-2 receptor (Homo sapiens, UniProt O43614).
T1 construct: expressed in transfected cells; host or cells: CHO cells
T1 sequence (O43614 1-444): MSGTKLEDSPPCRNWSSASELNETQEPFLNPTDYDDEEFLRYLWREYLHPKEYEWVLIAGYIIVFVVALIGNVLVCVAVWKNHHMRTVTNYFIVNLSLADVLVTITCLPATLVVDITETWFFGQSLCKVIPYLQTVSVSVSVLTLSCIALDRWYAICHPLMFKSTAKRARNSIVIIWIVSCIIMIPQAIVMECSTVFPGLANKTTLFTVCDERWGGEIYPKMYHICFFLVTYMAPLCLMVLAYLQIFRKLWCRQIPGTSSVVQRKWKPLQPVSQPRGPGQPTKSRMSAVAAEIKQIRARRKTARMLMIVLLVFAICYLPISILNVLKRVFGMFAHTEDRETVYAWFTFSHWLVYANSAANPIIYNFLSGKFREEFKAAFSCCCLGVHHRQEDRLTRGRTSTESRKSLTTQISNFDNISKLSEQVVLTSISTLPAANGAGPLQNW
Put plainly: FLIPR Ca2+ Flux Assay, CHO cells expressing the human orexin-2 receptor. It is filed as cell-based. As to conditions: agonist 70 pM Ala-6,12 orexin-A, read-out: hOX2R FLIPR IC50. As to the method:
The utility of the compounds in accordance with the present invention as orexin receptor OX1R and/or OX2R antagonists may be readily determined without undue experimentation by methodology well known in the art, including the “FLIPR Ca^2+ Flux Assay” (Okumura et al., Biochem. Biophys. Res. Comm. 280:976-981, 2001). In a typical experiment the OX1 and OX2 receptor antagonistic activity of the compounds of the present invention was determined in accordance with the following experimental method. For intracellular calcium measurements, Chinese hamster ovary (CHO) cells expressing the rat orexin-1 receptor or the human orexin-2 receptor, are grown in Iscove's modified DMEM containing 2 mM L-glutamine, […], 1% hypoxanthine-thymidine supplement, 100 U/ml penicillin, 100 μg/ml streptomycin and 10% heat-inactivated fetal calf serum (FCS). The cells are seeded at 20,000 cells/well into Becton-Dickinson black 384-well clear bottom sterile plates coated with poly-D-lysine. All reagents were from GIBCO-Invitrogen Corp. The seeded plates are incubated overnight at 37° C. and 5% CO2. Ala-6,12 human orexin-A as the agonist is prepared as a 1 mM stock solution in 1% bovine serum albumin (BSA) and diluted in assay buffer (HBSS containing 20 mM HEPES, 0.1% BSA and 2.5 mM probenecid, pH7.4) for use in the assay at a final concentration of 70 pM. Test compounds are prepared as 10 mM stock solution in DMSO, then diluted in 384-well plates, first in DMSO, then assay buffer. On the day of the assay, cells are washed 3 times with 100 μl assay buffer and then incubated for 60 min (37° C., 5% CO2) in 60 μl assay buffer containing 1 μM Fluo-4AM ester, 0.02% pluronic acid, and 1% BSA. The dye loading solution is then aspirated and cells are washed 3 times with 100 μl assay buffer. 30 μl of that same buffer is left in each well. Within the Fluorescent Imaging Plate Reader (FLIPR, Molecular Devices), test compounds are added to the plate in a volume of 25 μl, incubated for 5 min and finally 25 μl of agonist is added. Fluorescence is measured for each well at 1 second intervals for 5 minutes and the height of each fluorescence peak is compared to the height of the fluorescence peak induced by 70 pM Ala-6,12 orexin-A with buffer in place of antagonist. For each antagonist, IC50 value (the concentration of compound needed to inhibit 50% of the agonist response) is determined. Alternatively, compound potency can be assessed by a radioligand binding assay (described in Bergman et. al. Bioorg. Med. Chem. Lett. 2008, 18, 1425-1430) in which the inhibition constant (Ki) is determined in membranes prepared from CHO cells expressing either the OX1 or OX2 receptor. The intrinsic orexin receptor antagonist activity of a compound which may be used in the present invention may be determined by these assays.

Assay [2] addresses T2, hOX1R (Homo sapiens, UniProt O43613).
T2 construct: expressed in transfected cells; host or cells: CHO cells
T2 sequence (O43613 1-425): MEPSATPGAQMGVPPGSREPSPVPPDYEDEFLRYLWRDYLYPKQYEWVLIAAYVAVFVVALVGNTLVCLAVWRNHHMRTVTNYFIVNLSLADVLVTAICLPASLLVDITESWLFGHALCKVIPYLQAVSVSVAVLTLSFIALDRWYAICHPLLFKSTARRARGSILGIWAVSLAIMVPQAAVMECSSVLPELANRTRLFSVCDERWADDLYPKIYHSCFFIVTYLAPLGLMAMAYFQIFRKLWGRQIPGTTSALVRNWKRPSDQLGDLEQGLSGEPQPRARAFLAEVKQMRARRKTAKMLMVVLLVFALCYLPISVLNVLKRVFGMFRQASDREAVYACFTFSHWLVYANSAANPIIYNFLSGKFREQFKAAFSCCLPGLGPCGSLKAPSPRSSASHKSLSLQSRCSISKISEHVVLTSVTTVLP
In words: FLIPR Ca2+ Flux Assay, CHO cells expressing the orexin-1 receptor. The format is cell-based. As to conditions: agonist 70 pM Ala-6,12 orexin-A. (A change in cytosolic calcium serves as a functional read-out for many receptors and channels.)

For `COC(=O)c1c(OC)ccnc1N[C@@H]1CC[C@@H](C)N(C(=O)c2c(F)cccc2-c2noc(C)n2)C1` [Example 10, methyl 2-{[(3R,6R)-1-{[2-fluoro-6-(5-methyl-1,2,4-oxadiazol-3-yl)phenyl]carbonyl}-6-methylpiperidin-3-yl]amino}-4-methoxypyridine-3-carboxylate], the pIC50 (in general, the negative decadic logarithm of the IC50, by convention in mol/L) in assay [1] is 7.06; in assay [2], 6.48.
Take `COC(=O)c1c(OC)ccnc1N[C@@H]1CC[C@@H](C)N(C(=O)c2ncccc2-c2ncccn2)C1` [Example 18, methyl 4-methoxy-2-({(3R,6R)-6-methyl-1-[(3-pyrimidin-2-ylpyridin-2-yl)carbonyl]piperidin-3-yl}amino)pyridine-3-carboxylate]: the figures for the pIC50 in assay [1] and in assay [2] were 6.77 and 6.47, respectively.
On the same counts, the results for `COC(=O)c1c(OC)ccnc1N[C@@H]1CC[C@@H](C)N(C(=O)c2ccsc2-c2ncccn2)C1` [Example 17, methyl 4-methoxy-2-({(3R,6R)-6-methyl-1-[(2-pyrimidin-2-ylthiophen-3-yl)carbonyl]piperidin-3-yl}amino)pyridine-3-carboxylate] are 7.24 and 6.58.
Regarding `COC(=O)c1c(OC)ccnc1N[C@@H]1CC[C@@H](C)N(C(=O)c2cccc(F)c2-n2nccn2)C1` [Example 4, methyl 2-{[(3R,6R)-1-{[3-fluoro-2-(2H-1,2,3-triazol-2-yl)phenyl]carbonyl}-6-methylpiperidin-3-yl]amino}-4-methoxypyridine-3-carboxylate], the negative logarithm of the IC50 (pIC50) in assay [1] is 7.35; in assay [2], 6.44.
For the molecule `COC(=O)c1c(OC)ccnc1N[C@@H]1CC[C@@H](C)N(C(=O)c2cc(F)ccc2-n2nccn2)C1` [Example 5, methyl 2-{[(3R,6R)-1-{[5-fluoro-2-(2H-1,2,3-triazol-2-yl)phenyl]carbonyl}-6-methylpiperidin-3-yl]amino}-4-methoxypyridine-3-carboxylate], the figures for the pIC50 in assay [1] and in assay [2] were 7.35 and 6.68, respectively.
Turning to `COC(=O)c1c(OC)ccnc1N[C@@H]1CC[C@@H](C)N(C(=O)c2ccccc2-n2ncnn2)C1` [Example 3, Methyl 4-methoxy-2-{[(3R,6R)-6-methyl-1-{[2-(2H-tetrazol-2-yl)phenyl]carbonyl}piperidin-3-yl]amino}pyridine-3-carboxylate], the pIC50 in assay [1] is 7.47; in assay [2], 6.63.
On to `COC(=O)c1c(OC)ccnc1N[C@@H]1CC[C@@H](C)N(C(=O)c2c(F)cccc2-c2nc(C)no2)C1` [Example 8, methyl 2-{[(3R,6R)-1-{[2-fluoro-6-(3-methyl-1,2,4-oxadiazol-5-yl)phenyl]carbonyl}-6-methylpiperidin-3-yl]amino}-4-methoxypyridine-3-carboxylate], for which the pIC50 in assay [1] was 7.03; in assay [2] it was 6.54.
Take `COC(=O)c1cccnc1N[C@@H]1CC[C@@H](C)N(C(=O)c2ccccc2-n2nccn2)C1` [Example 1, Methyl 2-{[(3R,6R)-6-methyl-1-{[2-(2H-1,2,3-triazol-2-yl)phenyl]carbonyl}piperidin-3-yl]amino}pyridine-3-carboxylate]: the pIC50 in assay [1] is 7.42.
Take `COC(=O)c1c(C#N)ccnc1N[C@@H]1CC[C@@H](C)N(C(=O)c2ccccc2-n2nccn2)C1` [Example 19, Methyl 4-cyano-2-{[(3R,6R)-6-methyl-1-{[2-(2H-1,2,3-triazol-2-yl)phenyl]carbonyl}-piperidin-3-yl]amino}pyridine-3-carboxylate]: the figures for the pIC50 in assay [1] and in assay [2] were 7.62 and 7.37, respectively.
Consider `COC(=O)c1c(OC)ccnc1N[C@@H]1CC[C@@H](C)N(C(=O)c2ccccc2-c2ncccn2)C1` [Example 11, Methyl 4-methoxy-2-({(3R,6R)-6-methyl-1-[(2-pyrimidin-2-ylphenyl)carbonyl]piperidin-3-yl}amino)pyridine-3-carboxylate], for which the pIC50 in assay [1] is 7.39; in assay [2], 7.10.
As to `COC(=O)c1c(OC)ccnc1N[C@@H]1CC[C@@H](C)N(C(=O)c2cc(F)ccc2-c2ncccn2)C1` [Example 14, methyl 2-({(3R,6R)-1-[(5-fluoro-2-pyrimidin-2-ylphenyl)carbonyl]-6-methylpiperidin-3-yl}amino)-4-methoxypyridine-3-carboxylate], the pIC50 in assay [1] was 7.29; in assay [2] it was 7.08.
As to `COC(=O)c1c(OC)ccnc1N[C@@H]1CC[C@@H](C)N(C(=O)c2ccc(F)cc2-c2ncccn2)C1` [Example 13, methyl 2-({(3R,6R)-1-[(4-fluoro-2-pyrimidin-2-ylphenyl)carbonyl]-6-methylpiperidin-3-yl}amino)-4-methoxypyridine-3-carboxylate], the negative-log IC50 (pIC50) in assay [1] is 7.36; in assay [2], 6.86.
As to `COC(=O)c1c(OC)ccnc1N[C@@H]1CC[C@@H](C)N(C(=O)c2c(F)cccc2-n2nccn2)C1` [Example 6, methyl 2-{[(3R,6R)-1-{[2-fluoro-6-(2H-1,2,3-triazol-2-yl)phenyl]carbonyl}-6-methylpiperidin-3-yl]amino}-4-methoxypyridine-3-carboxylate], the pIC50 in assay [1] is 7.27; in assay [2] it was 6.81.
For the molecule `COC(=O)c1c(OC)ccnc1N[C@@H]1CC[C@@H](C)N(C(=O)c2c(F)cccc2-c2ncccn2)C1` [Example 15, methyl 2-({(3R,6R)-1-[(2-fluoro-6-pyrimidin-2-ylphenyl)carbonyl]-6-methylpiperidin-3-yl}amino)-4-methoxypyridine-3-carboxylate], the pIC50 in assay [1] is 7.42; in assay [2], 7.18.
As to `COC(=O)c1c(OC)ccnc1N[C@@H]1CC[C@@H](C)N(C(=O)c2ccccc2-c2nc(C)no2)C1` [Example 7, methyl 4-methoxy-2-{[(3R,6R)-6-methyl-1-{[2-(3-methyl-1,2,4-oxadiazol-5-yl)phenyl]carbonyl}piperidin-3-yl]amino}pyridine-3-carboxylate], the pIC50 in assay [1] was 7.13; in assay [2], 6.51.
As for `COC(=O)c1c(OC)ccnc1N[C@@H]1CC[C@@H](C)N(C(=O)c2cccc(F)c2-c2ncccn2)C1` [Example 12, methyl 2-({(3R,6R)-1-[(3-fluoro-2-pyrimidin-2-ylphenyl)carbonyl]-6-methylpiperidin-3-yl}amino)-4-methoxypyridine-3-carboxylate], the pIC50 is 7.28 in assay [1] and 6.71 in assay [2].
For `COC(=O)c1c(C#N)ccnc1N[C@@H]1CC[C@@H](C)N(C(=O)c2ccccc2-c2ncccn2)C1` [Example 20, Methyl 4-cyano-2-({(3R,6R)-6-methyl-1-[(2-pyrimidin-2-ylphenyl)carbonyl]piperidin-3-yl}amino)pyridine-3-carboxylate], the pIC50 was 7.32 in assay [1] and 7.07 in assay [2].
